Source: article PMC8508903, “Novel Dipyridinium Lipophile-Based Ionic Liquids Tethering Hydrazone Linkage: Design, Synthesis and Antitumorigenic Study” (International Journal of Molecular Sciences, 2021)
Where a name gives a salt, the structure may show the parent alone.

How the values were obtained:
A549 lung cancer cells = experiment: MTT cell viability assay, A549; type: cell-based, human; conditions: mean of three independent experiments (N = 9)
Method: (§1) To evaluate the effect of the examined series on the viability of different lung cancer cells, MTT assay was conducted after exposing A549, H1299, and H661 cell lines to increasing concentrations of each compound for 48 h. […] Table 2 and Supplementary Figure S92 (see Supplementary Materials) show the 50% inhibitory concentration (IC50) values for the compounds under investigation in A549, H1299, and H661 lung cancer cells.
(§2) The human lung cancer cell lines A549, H1299 and H661 and the normal cells dermal fibroblasts were obtained from the American Type Culture Collection ATCC. Cells were cultured as a monolayer at seeding density of 8 × 10^3 cells per well in high glucose Dulbecco’s modified eagle medium (DMEM) (Invitrogen, USA), as previously described. The in vitro assessment of the antitumorigenic activities related to the studied compounds was undertaken using the 3-(4,5-dimethylthiazol-2yl)-2,5-diphenyl tetrazolium bromide (MTT) colorimetric assay, as previously reported. The compounds under investigation were tested in three triplicates of each concentration in three independent assays for a total of nine replicates. Both positive (cisplatin) and negative (untreated culture) controls were applied under the same experimental conditions. Cells were cultured for 48 h at 37 °C in a 5% CO2 incubator. Afterwards, MTT assay was carried out where viable cell count was determined based on the amount of formazan crystals, as verified by the absorbance at 490 nm.
(§3) Data was analyzed by Graphpad Prism software (Graphpad Software Inc. Jolla, CA, USA) for the determination of IC50 value. All data were expressed as the average of triplicate experiments.

H661 lung cancer cells = experiment: MTT cell viability assay, H661; type: cell-based, human; conditions: mean of three independent experiments (N = 9)
Method: as §1, §2, §3

H1299 lung cancer cells = experiment: MTT cell viability assay, H1299; type: cell-based, human; conditions: mean of three independent experiments (N = 9)
Method: as §1, §2, §3

human dermal fibroblasts = experiment: MTT cell viability assay, normal dermal fibroblasts; type: cell-based; conditions: 48 h, noncancerous human dermal fibroblasts
Method: as §1, §2, §3

| IC50 (A549 lung cancer cells; 48 h) [µM] | IC50 (H661 lung cancer cells; 48 h) [µM] | IC50 (H1299 lung cancer cells; 48 h) [µM] | melting point [°C] | IC50 (A549 lung cancer cells; Homo sapiens, A549, 48 h) [µM] | IC50 (H661 lung cancer cells; Homo sapiens, NCI-H661, 48 h) [µM] | IC50 (H1299 lung cancer cells; Homo sapiens, NCI-H1299, 48 h) [µM] | SMILES | IC50 (human dermal fibroblasts) [µM] | IC50 (human dermal fibroblasts; Homo sapiens, Fibroblast) [µM] |
| --- | --- | --- | --- | --- | --- | --- | --- | --- | --- |
| 36.8 | 38.2 | 38 | – | – | – | – | CCCCCCCCCCCCCC[n+]1ccc(C(=O)NN=Cc2ccc[n+](CCCCCCCCCCCCCC)c2)cc1 [Compound 13, 1-Tetradecyl-3-((2-(1-tetradecylpyridin-1-ium-4-carbonyl)hydrazono)methyl)pyridin-1-ium Iodide] | > 300 | – |
| 38.6 | 41.9 | 38.5 | – | – | – | – | CCCCCCCCCCCCCC[n+]1ccc(C(=O)NN=Cc2ccc[n+](CCCCCCCCCCCCCC)c2)cc1 [Compound 30, 1-Tetradecyl-3-((2-(1-tetradecylpyridin-1-ium-4-carbonyl)hydrazono)methyl)pyridin-1-ium Trifluoroacetate] | > 300 | – |
| 15.1 | 23.5 | 19 | 70 to 72 | – | – | – | CCCCCCCCCC[n+]1ccc(C(=O)NN=Cc2ccc[n+](CCCCCCCCCC)c2)cc1.[I-].[I-] [Compound 11, 1-Decyl-3-((2-(1-decylpyridin-1-ium-4-carbonyl)hydrazono)methyl)pyridin-1-ium Iodide] | > 300 | – |
| 421 | 382 | 399 | – | – | – | – | CCCCCCCCCCCCCCCCCC[n+]1ccc(C(=O)NN=Cc2ccc[n+](CCCCCCCCCCCCCCCCCC)c2)cc1 [Compound 35, 1-Octadecyl-3-((2-(1-octadecylpyridin-1-ium-4-carbonyl)hydrazono)methyl)pyridin-1-ium Tetrafluoroborate] | > 1000 | – |
| 920 | 904 | 947 | – | – | – | – | CCCCCCCCCCCCCCCCCC[n+]1ccc(C(=O)NN=Cc2ccc[n+](CCCCCCCCCCCCCCCCCC)c2)cc1 [Compound 36, 1-Octadecyl-3-((2-(1-octadecylpyridin-1-ium-4-carbonyl)hydrazono)methyl)pyridin-1-ium Trifluoroacetate] | > 1000 | – |
| 114 | 104 | 108 | – | – | – | – | CCCCCCCCCCCCCCCC[n+]1ccc(C(=O)NN=Cc2ccc[n+](CCCCCCCCCCCCCCCC)c2)cc1 [Compound 32, 1-Hexadecyl-3-((2-(1-hexadecylpyridin-1-ium-4-carbonyl)hydrazono)methyl)pyridin-1-ium Tetrafluoroborate] | – | > 300 |
| 7.11 | 11.2 | 10.1 | – | – | – | – | CCCCCCCCCCCCCCCC[n+]1ccc(C(=O)NN=Cc2ccc[n+](CCCCCCCCCCCCCCCC)c2)cc1 [Compound 14, 1-Hexadecyl-3-((2-(1-hexadecylpyridin-1-ium-4-carbonyl)hydrazono)methyl)pyridin-1-ium Iodide] | > 300 | – |
| – | – | – | 42 to 44 | – | – | – | CCCCCCCCCC[n+]1ccc(C(=O)N/N=C/c2ccc[n+](CCCCCCCCCC)c2)cc1 (as salt: phosphate) [Compound 22, 1-Decyl-3-((2-(1-decylpyridin-1-ium-4-carbonyl)hydrazono)methyl)pyridin-1-ium Hexafluorophosphate] | – | – |
| – | 33 | 32.6 | – | 31.4 | – | – | CCCCCCCCC[n+]1ccc(C(=O)NN=Cc2ccc[n+](CCCCCCCCC)c2)cc1 [Compound 20, 1-Nonyl-3-((2-(1-nonylpyridin-1-ium-4-carbonyl)hydrazono)methyl)pyridin-1-ium Tetrafluoroborate] | – | > 300 |
| – | – | – | – | 69.1 | 61.2 | 66 | CCCCCCCC[n+]1ccc(C(=O)NN=Cc2ccc[n+](CCCCCCCC)c2)cc1 [Compound 17, 1-Octyl-3-((2-(1-octylpyridin-1-ium-4-carbonyl)hydrazono)methyl)pyridin-1-ium Tetrafluoroborate] | – | > 300 |
| 55.6 | 60.1 | 63.1 | 76 to 78 | – | – | – | CCCCCCCCC[n+]1ccc(C(=O)NN=Cc2ccc[n+](CCCCCCCCC)c2)cc1.[I-].[I-] [Compound 10, 1-Nonyl-3-((2-(1-nonylpyridin-1-ium-4-carbonyl)hydrazono)methyl)pyridin-1-ium Iodide] | > 300 | – |
| 20 | 18.1 | 19 | – | – | – | – | CCCCCCCCCC[n+]1ccc(C(=O)NN=Cc2ccc[n+](CCCCCCCCCC)c2)cc1 [Compound 24, 1-Decyl-3-((2-(1-decylpyridin-1-ium-4-carbonyl)hydrazono)methyl)pyridin-1-ium Trifluoroacetate] | > 300 | – |
| 75.3 | 74.2 | 64.3 | 82 to 84 | – | – | – | CCCCCCCC[n+]1ccc(C(=O)NN=Cc2ccc[n+](CCCCCCCC)c2)cc1.[I-].[I-] [Compound 9, 1-Octyl-3-((2-(1-octylpyridin-1-ium-4-carbonyl)hydrazono)methyl)pyridin-1-ium Iodide] | > 300 | – |
| 26.2 | 26.1 | 22.1 | 192 to 193 | – | – | – | CCCCCCCCCCCCCCCCCC[n+]1ccc(C(=O)NN=Cc2ccc[n+](CCCCCCCCCCCCCCCCCC)c2)cc1.[I-].[I-] [Compound 15, 1-Octadecyl-3-((2-(1-octadecylpyridin-1-ium-4-carbonyl)hydrazono)methyl)pyridin-1-ium Iodide] | > 300 | – |
| 26.9 | 29.8 | 30.1 | 63 to 65 | – | – | – | CCCCCCCCCCCC[n+]1ccc(C(=O)NN=Cc2ccc[n+](CCCCCCCCCCCC)c2)cc1.[I-].[I-] [Compound 12, 1-Dodecyl-3-((2-(1-dodecylpyridin-1-ium-4-carbonyl)hydrazono)methyl)pyridin-1-ium Iodide] | > 300 | – |
| – | – | – | – | 42.1 | 46.8 | 44.6 | CCCCCCCCCCCCCC[n+]1ccc(C(=O)NN=Cc2ccc[n+](CCCCCCCCCCCCCC)c2)cc1 [Compound 29, 1-Tetradecyl-3-((2-(1-tetradecylpyridin-1-ium-4-carbonyl)hydrazono)methyl)pyridin-1-ium Tetrafluoroborate] | – | > 300 |
| – | 10.5 | 12.1 | – | 14.3 | – | – | CCCCCCCCCCCC[n+]1ccc(C(=O)NN=Cc2ccc[n+](CCCCCCCCCCCC)c2)cc1 [Compound 27, 1-Dodecyl-3-((2-(1-dodecylpyridin-1-ium-4-carbonyl)hydrazono)methyl)pyridin-1-ium Trifluoroacetate] | – | > 300 |
| 78.5 | 74.5 | 71 | – | – | – | – | CCCCCCCC[n+]1ccc(C(=O)NN=Cc2ccc[n+](CCCCCCCC)c2)cc1 [Compound 18, 1-Octyl-3-((2-(1-octylpyridin-1-ium-4-carbonyl)hydrazono)methyl)pyridin-1-ium Trifluoroacetate] | > 300 | – |
| – | – | – | – | 44 | 40.4 | 39.3 | CCCCCCCCCCCC[n+]1ccc(C(=O)N/N=C/c2ccc[n+](CCCCCCCCCCCC)c2)cc1 [Compound 26, 11-Dodecyl-3-((2-(1-dodecylpyridin-1-ium-4-carbonyl)hydrazono)methyl)pyridin-1-ium Tetrafluoroborate] | – | > 300 |
| 33.5 | 19.4 | 28 | – | – | – | – | CCCCCCCCC[n+]1ccc(C(=O)NN=Cc2ccc[n+](CCCCCCCCC)c2)cc1 [Compound 21, 1-Nonyl-3-((2-(1-nonylpyridin-1-ium-4-carbonyl)hydrazono)methyl)pyridin-1-ium Trifluoroacetate] | > 300 | – |
| 87.8 | 100 | 92.3 | – | – | – | – | CCCCCCCCCCCCCCCC[n+]1ccc(C(=O)NN=Cc2ccc[n+](CCCCCCCCCCCCCCCC)c2)cc1 [Compound 33, 1-Hexadecyl-3-((2-(1-hexadecylpyridin-1-ium-4-carbonyl)hydrazono)methyl)pyridin-1-ium Trifluoroacetate] | > 300 | – |
| – | – | – | 58 to 59 | – | – | – | CCCCCCCC[n+]1ccc(C(=O)N/N=C/c2ccc[n+](CCCCCCCC)c2)cc1 (as salt: phosphate) [Compound 16, 1-Octyl-3-((2-(1-octylpyridin-1-ium-4-carbonyl)hydrazono)methyl)pyridin-1-ium Hexafluorophosphate] | – | – |

| SMILES | IC50 (A549 lung cancer cells; 48 h) [µM] | IC50 (H661 lung cancer cells; 48 h) [µM] | IC50 (H1299 lung cancer cells; 48 h) [µM] | melting point [°C] | IC50 (A549 lung cancer cells; Homo sapiens, A549, 48 h) [µM] | IC50 (H661 lung cancer cells; Homo sapiens, NCI-H661, 48 h) [µM] | IC50 (H1299 lung cancer cells; Homo sapiens, NCI-H1299, 48 h) [µM] | IC50 (human dermal fibroblasts) [µM] | IC50 (human dermal fibroblasts; Homo sapiens, Fibroblast) [µM] |
| --- | --- | --- | --- | --- | --- | --- | --- | --- | --- |
| N.N.[Cl][Pt][Cl] [Cisplatin, cisplatin, reference compound] | 23 | 32 | 18 | – | – | – | – | > 100 | – |
